Test results reported in patent US7511041B2, “Fused azole-pyrimidine derivatives” (Bayer Pharmaceuticals Corporation, priority 2002, dated 2009).

What was measured:
[1] = target: T1, Recombinant human PI3Kγ (full length human PI3K p110γ) (Homo sapiens, UniProt P48736); test: Kinase assay of PI3Kγ (solid-phase lipid kinase assay); assay type: biochemical; details: activity class of IC50; read-out: In vitro PI3K-γ inhibitory activity
T1 construct: full length human PI3K p110γ fused with a His6-tag at the C-terminus; His6 (C); purchased ALEXIS BIOCHEMICALS #201-055-C010; host or cells: S. frugiperda 9 insect cells

[2] = target: PI3Kβ (heterocomplex of p110β and GST-p85α) (UniProt Q9Z1L0); test: Isozyme selectivity test: kinase assay of PI3Kβ; assay type: biochemical; details: activity class of IC50; read-out: In vitro PI3K-β inhibitory activity
Experimental: [Isozyme Selectivity Test in PI3K]
{Determination of IC50 Values of Compounds in Kinase Assay of PI3Kβ}
Recombinant baculovirus of PI3Kβ p110β and GST-p85α were obtained from Dr. Katada (University of Tokyo). Recombinant PI3K heterocomplex of p110β and GST-p85α were co-expressed in insect cells according to manufacture's instruction (Pharmingen, San Diego, Calif.), and purified with glutathione affinity column. Kinase assay of PI3Kβ was prepared in a similar manner as described in the part of [Determination of IC50 values of compounds in kinase assay of PI3Kγ].

T1 sequence (P48736 whole entry, the tested form may be a part): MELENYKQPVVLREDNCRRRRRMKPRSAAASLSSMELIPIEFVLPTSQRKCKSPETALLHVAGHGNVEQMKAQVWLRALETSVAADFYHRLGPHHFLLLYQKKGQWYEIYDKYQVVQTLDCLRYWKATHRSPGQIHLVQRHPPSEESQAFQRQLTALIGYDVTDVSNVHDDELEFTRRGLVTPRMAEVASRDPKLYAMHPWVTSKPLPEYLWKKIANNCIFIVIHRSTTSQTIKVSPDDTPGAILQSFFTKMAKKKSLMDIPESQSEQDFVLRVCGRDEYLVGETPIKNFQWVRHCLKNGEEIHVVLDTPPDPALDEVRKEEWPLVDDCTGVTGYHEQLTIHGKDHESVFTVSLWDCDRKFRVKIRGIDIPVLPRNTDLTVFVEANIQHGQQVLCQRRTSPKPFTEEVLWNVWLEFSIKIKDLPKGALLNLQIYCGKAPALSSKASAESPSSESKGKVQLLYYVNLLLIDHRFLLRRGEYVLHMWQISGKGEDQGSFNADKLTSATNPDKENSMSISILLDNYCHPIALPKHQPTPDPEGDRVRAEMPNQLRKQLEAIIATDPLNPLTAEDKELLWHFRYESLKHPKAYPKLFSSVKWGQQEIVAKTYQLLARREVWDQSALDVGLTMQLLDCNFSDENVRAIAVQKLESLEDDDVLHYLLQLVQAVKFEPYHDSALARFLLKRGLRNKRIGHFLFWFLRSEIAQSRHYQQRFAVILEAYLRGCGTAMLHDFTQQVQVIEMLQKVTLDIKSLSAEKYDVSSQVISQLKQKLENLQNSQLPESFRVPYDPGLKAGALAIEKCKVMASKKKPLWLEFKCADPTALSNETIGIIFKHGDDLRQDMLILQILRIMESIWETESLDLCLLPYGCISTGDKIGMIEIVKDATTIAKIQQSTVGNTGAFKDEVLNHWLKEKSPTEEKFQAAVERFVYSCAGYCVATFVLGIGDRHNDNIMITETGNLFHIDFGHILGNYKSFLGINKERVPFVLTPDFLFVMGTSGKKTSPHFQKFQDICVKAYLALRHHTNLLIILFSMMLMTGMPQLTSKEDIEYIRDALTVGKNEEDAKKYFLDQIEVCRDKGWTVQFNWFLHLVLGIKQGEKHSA

| Compound | IC50 [1] | IC50 [2] | melting point |
| --- | --- | --- | --- |
| COc1cc2c(cc1OC)C1=NCCN1C(/C=C(\O)c1cccnc1)=N2 [Example 1-1, (Z)-2-(8,9-Dimethoxy-2,3-dihydroimidazo[1,2-c]quinazolin-5-yl)-1-(3-pyridinyl)ethenol] | < 100 nM | 500 to 2000 nM | 275 °C |
| COC(=O)CCCOc1ccc2c(c1OC)N=C(/C=C(\O)c1cccnc1)N1CCN=C21 [Example 1-5, Methyl 4-{[5-(2-hydroxy-2-pyridin-3-ylvinyl)-7-methoxy-2,3-dihydroimidazo[1,2-c]quinazolin-8-yl]oxy}butanoate] | < 100 nM | 500 to 2000 nM | 199 to 200 °C |
| COc1c(OCCCC(=O)O)ccc2c1N=C(/C=C(\O)c1cccnc1)N1CCN=C21 [Example 1-6, 4-{[5-(2-Hydroxy-2-pyridin-3-ylvinyl)-7-methoxy-2,3-dihydroimidazo[1,2-c]quinazolin-8-yl]oxy}butanoic acid] | < 100 nM | 100 to 500 nM | – |
| COc1c(OCCCC(=O)N2CCOCC2)ccc2c1N=C(/C=C(\O)c1cccnc1)N1CCN=C21 [Example 1-8, 2-[7-Methoxy-8-(4-morpholin-4-yl-4-oxobutoxy)-2,3-dihydroimidazo[1,2-c]quinazolin-5-yl]-1-pyridin-3-ylethylenol] | < 100 nM | 100 to 500 nM | 234 to 235 °C |
| O=C(NC1=Nc2ccccc2C2=NCCN12)c1cccnc1 [Example 2-1, N-(2,3-Dihydroimidazo[1,2-c]quinazolin-5-yl)nicotinamide] | < 100 nM | 100 to 500 nM | 238 to 239 °C (dec.) |
| CC(=O)Nc1ccc(C(=O)NC2=Nc3cc(N4CCOCC4)ccc3C3=NCCN23)cn1 [Example 2-3, 6-(Acetamido)-N-[8-(morpholin-4-yl)-2,3-dihydroimidazo[1,2-c]quinazolin-5-yl]nicotinamide] | < 100 nM | 500 to 2000 nM | – |

Other lines, results leading:

| IC50 [1] | IC50 [2] | melting point | Compound |
| --- | --- | --- | --- |
| 100 to 500 nM | 500 to 2000 nM | 289 °C | O=C(NC1=Nc2cc(O)ccc2C2=NCCN12)c1cccnc1 [Example 2-5, N-(8-Hydroxy-2,3-dihydroimidazo[1,2-c]quinazolin-5-yl)nicotinamide] |
| 100 to 500 nM | 100 to 500 nM | 209 °C | O=C(NC1=Nc2cc(OCCn3cccc3)ccc2C2=NCCN12)c1cccnc1 [Example 2-6, N-{8-[2-(1-pyrrolyl)ethoxy]-2,3-dihydroimidazo[1,2-c]quinazolin-5-yl}nicotinamide] |
